From BigSolDB 2.1

CC(=O)c1c(C)c([N+](=O)[O-])c(C(C)(C)C)c([N+](=O)[O-])c1C
solubility (mole fraction)
Conditions	278.15 K	283.15 K	288.15 K	293.15 K	298.15 K	303.15 K	308.15 K	313.15 K	318.15 K
in DMF	0.0747	0.0867	0.0998	0.113	0.128	0.147	0.167	0.187	0.211
in ethanol	0.00197	0.00243	0.003	0.00367	0.00444	0.00531	0.00633	0.00753	0.00892
in isopropanol	0.00161	0.00204	0.00258	0.00323	0.00408	0.00506	0.0063	0.00771	0.00933
in methanol	0.0013	0.00156	0.00187	0.00224	0.00267	0.00318	0.00375	0.00442	0.00515
